The values that follow come from ChEMBL document CHEMBL1201862, “PubChem BioAssay data set” (2004).

What all share (test): DTP human tumour cell line panel, 48 h
In experiment [1] the test system is OVCAR-4.
The subject of experiment [2] is NCI-H460.
The test system of experiment [3] is U-251.
Experiment [4] concerns KM12.
The subject of experiment [5] is EKVX.
In experiment [6] the test system is SF-268.
Experiment [7] has as its system RPMI-8226.
For experiment [8], the system named is RXF 393.
For experiment [9], the system named is MDA-MB-435.
For experiment [10], the system named is MCF7.
For experiment [11], the system named is SK-MEL-28.
The subject of experiment [12] is CAKI-1.
In experiment [13] the test system is SK-MEL-5.
Experiment [14] has as its system HOP-92.
The test system of experiment [15] is UACC-62.
Experiment [16] relates to HCT-15.
For experiment [17], the system named is NCI-H522.
For experiment [18], the system named is ACHN.
In experiment [19] the test system is TK-10.
Experiment [20] has as its system Hs-578T.

Each structure is given as a SMILES string.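 Results reflect a 48-hour exposure of cells in 96-well plates to compound at five concentrations. The concentration for 50% growth inhibition is given as GI50.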 The source made the active and inactive calls. No stated cut-off is given here; in the data, active = GI50 up to about 1.1 µM and inactive = higher. Bounds are passed on as bounds.

In the case of `CC(C)c1ccc(/C=C2\N=C(c3ccc([N+](=O)[O-])cc3)OC2=O)cc1`, the GI50 in experiment [1] was > 100 µM (inactive); in [2] it was > 100 µM (inactive); in experiment [3], 54.2 µM (inactive); in experiment [4] it was > 100 µM (inactive); in experiment [5], > 100 µM (inactive); in experiment [6], > 100 µM (inactive). The GI50 is > 100 µM (inactive) in [7]; 14.9 µM (inactive) in [8]; > 100 µM (inactive) in experiment [9]; > 100 µM (inactive) in [10]; > 100 µM (inactive) in experiment [11]; > 100 µM (inactive) in experiment [12]. Also, the GI50 in experiment [13] was > 100 µM (inactive); in experiment [14], > 100 µM (inactive); in experiment [15] it was > 100 µM (inactive); in experiment [16] it was over 100 µM; in [17] it was > 100 µM (inactive); in experiment [18], > 100 µM (inactive). In addition, the GI50 in [19] and in experiment [20] was > 100 µM (inactive) each time.
For `CCC(C)NC(=S)N/N=C(\C)c1nc2cccnc2[nH]1` (stereo not given), the GI50 in experiment [1] is 4.91 µM (inactive); in experiment [2] it was 10 µM (inactive); in [3], 9.14 µM (inactive); in experiment [4], 15.9 µM (inactive); in [5] it was 6.73 µM (inactive); in experiment [6] it was 8.36 µM (inactive). Further, the GI50 in experiment [7] is 21.6 µM (inactive); in experiment [8] it was 15.6 µM (inactive); in [9], 31.3 µM (inactive); in [10], 2.1 µM (inactive); in experiment [11] it was 33.9 µM (inactive); in experiment [12], 4.07 µM (inactive). Further, the GI50 in [13] is 4.72 µM (inactive); in [14] it was 7.18 µM (inactive); in experiment [15], 6.11 µM (inactive); in experiment [16], 5.64 µM; in experiment [17], 7.87 µM (inactive); in experiment [18], 9.57 µM (inactive). The GI50 in [19] was 12.3 µM (inactive); in experiment [20], 19.3 µM (inactive).
`COc1ccc(COCC[C@H](C)OC2OC(CO)C(O)C(O)C2O)cc1` (stereo not given in full): the GI50 in [1], in experiment [2], in [3], in experiment [4], in experiment [5] and in [6] was > 100 µM (inactive) in each case. In addition, the GI50 in [7], in experiment [8], in experiment [9], in experiment [10], in experiment [11] and in experiment [12] was > 100 µM (inactive) in each case. Also, the GI50 in experiment [13] is > 100 µM (inactive); in experiment [14] it was > 100 µM (inactive); in experiment [15] it was > 100 µM (inactive); in experiment [16] it was over 100 µM; in experiment [17], > 100 µM (inactive); in experiment [18] it was > 100 µM (inactive). Also, the GI50 in experiment [19] and in experiment [20] was > 100 µM (inactive) throughout.
On to `CCN(CC)c1ccc2cc(C(N)=S)c(=N)oc2c1`, for which the GI50 in experiment [1], in experiment [2], in [3], in experiment [4], in [5] and in experiment [6] was > 100 µM (inactive) each time. For the same molecule, the GI50 in experiment [7], in experiment [8], in experiment [9], in experiment [10], in [11] and in experiment [12] was > 100 µM (inactive) in each case. Also, the GI50 in experiment [13] is > 100 µM (inactive); in [14], > 100 µM (inactive); in [15] it was > 100 µM (inactive); in [16] it was over 100 µM; in experiment [17], > 100 µM (inactive); in experiment [18] it was > 100 µM (inactive). The GI50 in [19] and in experiment [20] was > 100 µM (inactive) in each case.
`CC(C)C1SCc2nc3ccccc3n21` (stereo not given): the GI50 is 27.4 µM (inactive) in experiment [1]; 46.3 µM (inactive) in experiment [2]; 51.4 µM (inactive) in experiment [3]; 17.8 µM (inactive) in [4]; 32.4 µM (inactive) in [5]; 64.3 µM (inactive) in [6]. The GI50 is 31.5 µM (inactive) in experiment [7]; 39.6 µM (inactive) in experiment [8]; 28.8 µM (inactive) in [9]; 13.9 µM (inactive) in experiment [10]; 68.1 µM (inactive) in [11]; 40.1 µM (inactive) in experiment [12]. Moreover, the GI50 in [13] was 16.4 µM (inactive); in experiment [14] it was 16.3 µM (inactive); in experiment [15], 35.1 µM (inactive); in [16], 50.1 µM; in experiment [17], 71.3 µM (inactive); in [18] it was 19.7 µM (inactive). Also, the values for the GI50 in [19] and in experiment [20] were 38.5 µM (inactive) and 36.1 µM (inactive), respectively.
As to `OCCN(CO)CO`, the GI50 in experiment [1], in experiment [2], in experiment [3], in [4], in experiment [5] and in [6] was > 100 µM (inactive) throughout. The GI50 was 86.5 µM (inactive) in experiment [7]; > 100 µM (inactive) in [8]; > 100 µM (inactive) in [9]; > 100 µM (inactive) in experiment [10]; > 100 µM (inactive) in experiment [11]; > 100 µM (inactive) in experiment [12]. Moreover, the GI50 was > 100 µM (inactive) in experiment [13]; > 100 µM (inactive) in experiment [14]; > 100 µM (inactive) in experiment [15]; over 100 µM in [16]; > 100 µM (inactive) in experiment [17]; > 100 µM (inactive) in experiment [18]. In addition, the GI50 in experiment [19] and in experiment [20] was > 100 µM (inactive) in each case.
For the molecule `CCC(C)C(N)C(=O)N/N=C\c1c2c(nc3ccccc13)-c1cc3c(c(=O)n1C2)COC(=O)[C@]3(O)CC` (stereo not given in full), the GI50 is 1.43 µM (inactive) in experiment [1]; < 0.0134 µM (active) in experiment [2]; < 0.01 µM (active) in [3]; 0.925 µM (active) in experiment [4]; 1.89 µM (inactive) in [5]; < 0.01 µM (active) in experiment [6]. Further, the GI50 in experiment [7] is 0.142 µM (active); in [8], < 0.0284 µM (active); in experiment [9], 0.468 µM (active); in experiment [10], < 0.01 µM (active); in experiment [11], 0.259 µM (active); in experiment [12], 0.0397 µM (active). Moreover, the GI50 in [13] is 0.0594 µM (active); in [14], 0.0803 µM (active); in experiment [15] it was < 0.01 µM (active); in [16], 0.356 µM; in experiment [17], < 0.048 µM (active); in experiment [18] it was < 0.0117 µM (active). Further, the GI50 in experiment [19] is 4.02 µM (inactive); in experiment [20], 1.82 µM (inactive).

The GI50 is the concentration at which growth is held to half of that of the control.
